{
  "source": "ChEMBL document CHEMBL4828771",
  "about": "“Discovery and Development of a Potent, Selective, and Orally Bioavailable CHK1 Inhibitor Candidate: 5-((4-((3-Amino-3-methylbutyl)amino)-5-(trifluoromethyl)pyrimidin-2-yl)amino)picolinonitrile” (J Med Chem, 2021)",
  "data": [
    {"test_system": "Z-138", "experiment": "Antiproliferation activity against human Z138 cells assessed as reduction in cell viability incubated for 72 hrs by MTS assay", "type": "functional, cell-based", "conditions": "Z-138, 72 h", "units": {"IC50": "nM"}, "values": [
      {"smiles": "N#Cc1ccc(Nc2ncc(C(F)(F)F)c(NC[C@@H]3CCNC3)n2)cn1", "IC50": 1170},
      {"smiles": "CNc1nc(Nc2cnc(C#N)c(O[C@@H]3CCNC3)c2)ncc1C(F)(F)F", "IC50": 1410},
      {"smiles": "CNc1nc(Nc2cnc(C#N)c(NCCN(C)C)c2)ncc1C(F)(F)F", "IC50": 290}
    ]},
    {"test_system": "MV4-11", "experiment": "Antiproliferation activity against human MV4-11 cells assessed as reduction in cell viability incubated for 72 hrs by MTS assay", "type": "functional, cell-based", "conditions": "MV4-11, 72 h", "units": {"IC50": "nM"}, "values": [
      {"smiles": "N#Cc1ccc(Nc2ncc(C(F)(F)F)c(NC[C@@H]3CCNC3)n2)cn1", "IC50": 200},
      {"smiles": "CNc1nc(Nc2cnc(C#N)c(O[C@@H]3CCNC3)c2)ncc1C(F)(F)F", "IC50": 430},
      {"smiles": "CNc1nc(Nc2cnc(C#N)c(NCCN(C)C)c2)ncc1C(F)(F)F", "IC50": 260}
    ]},
    {"target": "T1, Serine/threonine-protein kinase Chk1 (Homo sapiens, UniProt O14757)", "T1 sequence (O14757 whole entry)": "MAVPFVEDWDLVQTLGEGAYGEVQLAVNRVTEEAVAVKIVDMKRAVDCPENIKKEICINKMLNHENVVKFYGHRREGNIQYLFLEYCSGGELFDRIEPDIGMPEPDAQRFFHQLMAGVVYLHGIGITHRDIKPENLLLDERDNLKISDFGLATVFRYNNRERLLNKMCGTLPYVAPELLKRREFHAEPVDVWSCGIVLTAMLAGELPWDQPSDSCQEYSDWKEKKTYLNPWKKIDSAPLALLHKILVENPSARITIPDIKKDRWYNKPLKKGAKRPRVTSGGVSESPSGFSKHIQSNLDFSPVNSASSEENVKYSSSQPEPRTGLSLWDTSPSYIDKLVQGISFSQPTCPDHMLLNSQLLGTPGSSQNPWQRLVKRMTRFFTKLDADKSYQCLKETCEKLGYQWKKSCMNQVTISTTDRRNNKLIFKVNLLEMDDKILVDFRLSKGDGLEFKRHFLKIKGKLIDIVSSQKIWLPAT", "experiment": "Inhibition of CHK1 (unknown origin) incubated for 1 hr in presence of ATP by HTRF assay", "conditions": "not given", "units": {"IC50": "nM"}, "values": [
      {"smiles": "N#Cc1ccc(Nc2ncc(C(F)(F)F)c(NCC3CCNCC3)n2)cn1", "IC50": 65.5},
      {"smiles": "CNc1nc(Nc2cnc(C#N)c(NCCCN)c2)ncc1C(F)(F)F", "IC50": 51.1},
      {"smiles": "N#Cc1ccc(Nc2ncc(C(F)(F)F)c(NC[C@@H]3CCNC3)n2)cn1", "IC50": 40.3},
      {"smiles": "COCCNCCCNc1nc(Nc2ccc(C#N)nc2)ncc1C(F)(F)F", "IC50": 577},
      {"smiles": "CNc1nc(Nc2cnc(C#N)c(OCCCN)c2)ncc1C(F)(F)F", "IC50": 78},
      {"smiles": "N#Cc1ccc(Nc2ncc(C(F)(F)F)c(NC3CC4CCC(C3)N4)n2)cn1", "note": "(stereo not drawn)", "IC50": 624},
      {"smiles": "N#Cc1ccc(Nc2ncc(C(F)(F)F)c(NCC3CCCNC3)n2)cn1", "note": "(racemic)", "IC50": 62.6},
      {"smiles": "CNc1nc(Nc2cnc(C#N)c(OC[C@@H]3CCCNC3)c2)ncc1C(F)(F)F", "IC50": 244},
      {"smiles": "N#Cc1ccc(Nc2ncc(C(F)(F)F)c(NC3CCCNC3)n2)cn1", "note": "(racemic)", "IC50": 69.5},
      {"smiles": "CC(C)NCCCNc1nc(Nc2ccc(C#N)nc2)ncc1C(F)(F)F", "IC50": 1980},
      {"smiles": "N#Cc1ccc(Nc2ncc(C(F)(F)F)c(N[C@@H]3CCCNC3)n2)cn1", "IC50": 831},
      {"smiles": "N#Cc1ccc(Nc2ncc(C(F)(F)F)c(NCCCNC3CC3)n2)cn1", "IC50": 270},
      {"smiles": "CN1CCC(CNc2nc(Nc3ccc(C#N)nc3)ncc2C(F)(F)F)CC1", "IC50": 185},
      {"smiles": "N#Cc1ccc(Nc2ncc(C(F)(F)F)c(NC3CCNCC3)n2)cn1", "IC50": 120},
      {"smiles": "N#Cc1ccc(Nc2ncc(C(F)(F)F)c(NCCCNC3CCCCC3)n2)cn1", "IC50": 2260},
      {"smiles": "CNc1nc(Nc2cnc(C#N)c(O[C@H]3CCNC3)c2)ncc1C(F)(F)F", "IC50": 45},
      {"smiles": "CNc1nc(Nc2cnc(C#N)c(N[C@H]3CCNC3)c2)ncc1C(F)(F)F", "IC50": 59.5},
      {"smiles": "CNc1nc(Nc2cnc(C#N)c(O[C@@H]3CCNC3)c2)ncc1C(F)(F)F", "IC50": 21.3},
      {"smiles": "N#Cc1ccc(Nc2ncc(C(F)(F)F)c(NCCCNCCC(N)=O)n2)cn1", "IC50": 107},
      {"smiles": "N#Cc1ccc(Nc2ncc(C(F)(F)F)c(NC3CN4CCC3CC4)n2)cn1", "note": "(stereo not drawn)", "IC50": 307},
      {"smiles": "N#Cc1ccc(Nc2ncc(C(F)(F)F)c(NCCCCN)n2)cn1", "IC50": 88.4},
      {"smiles": "CNc1nc(Nc2cnc(C#N)c(NCCN(C)C)c2)ncc1C(F)(F)F", "IC50": 34},
      {"smiles": "N#Cc1ccc(Nc2ncc(C(F)(F)F)c(NCCN)n2)cn1", "IC50": 217},
      {"smiles": "N#Cc1ccc(Nc2ncc(C(F)(F)F)c(N[C@H]3CCNC3)n2)cn1", "IC50": 214},
      {"smiles": "CNc1nc(Nc2cnc(C#N)c(NC3CN4CCC3CC4)c2)ncc1C(F)(F)F", "note": "(stereo not drawn)", "IC50": 608},
      {"smiles": "N#Cc1ccc(Nc2ncc(C(F)(F)F)c(NC[C@H]3CCCNC3)n2)cn1", "IC50": 111},
      {"smiles": "N#Cc1ccc(Nc2ncc(C(F)(F)F)c(NCCCNC3CCCC3)n2)cn1", "IC50": 5500},
      {"smiles": "N#Cc1ccc(Nc2ncc(C(F)(F)F)c(NCCCNC3CCC3)n2)cn1", "IC50": 1490},
      {"smiles": "N#Cc1ccc(Nc2ncc(C(F)(F)F)c(NCCCNCC(O)CO)n2)cn1", "note": "(stereo not drawn)", "IC50": 152},
      {"smiles": "N#Cc1ncc(Nc2ncc(C(F)(F)F)cn2)cc1O[C@@H]1CCCNC1", "IC50": 1010},
      {"smiles": "CN(C)CCCNc1nc(Nc2ccc(C#N)nc2)ncc1C(F)(F)F", "IC50": 458},
      {"smiles": "N#Cc1ccc(Nc2ncc(C(F)(F)F)c(NCCCNC=O)n2)cn1", "IC50": 441},
      {"smiles": "CNc1nc(Nc2cnc(C#N)c(NC[C@@H]3CCCNC3)c2)ncc1C(F)(F)F", "IC50": 110},
      {"smiles": "CNc1nc(Nc2cnc(C#N)c(N[C@@H]3CCN(C)C3)c2)ncc1C(F)(F)F", "IC50": 119},
      {"smiles": "CNc1nc(Nc2cnc(C#N)c(NC3CCNCC3)c2)ncc1C(F)(F)F", "IC50": 101},
      {"smiles": "CNc1nc(Nc2cnc(C#N)c(OC3CCN(C)CC3)c2)ncc1C(F)(F)F", "IC50": 53.7},
      {"smiles": "CC(C)(CN)CNc1nc(Nc2ccc(C#N)nc2)ncc1C(F)(F)F", "IC50": 220},
      {"smiles": "CNc1nc(Nc2cnc(C#N)c(N[C@H]3CCCNC3)c2)ncc1C(F)(F)F", "IC50": 502},
      {"smiles": "CNc1nc(Nc2cnc(C#N)c(OCC3CCNCC3)c2)ncc1C(F)(F)F", "IC50": 213},
      {"smiles": "N#Cc1ccc(Nc2ncc(C(F)(F)F)c(NCC3CCCCN3)n2)cn1", "note": "(racemic)", "IC50": 993},
      {"smiles": "CNc1nc(Nc2cnc(C#N)c(O[C@H]3CCCNC3)c2)ncc1C(F)(F)F", "IC50": 355},
      {"smiles": "N#Cc1ccc(Nc2ncc(C(F)(F)F)c(NCCCNCCN3CCOCC3)n2)cn1", "IC50": 1610}
    ]}
  ]
}
